According to paper PMC12669039 (Nature Microbiology, 2025):

Target: T1, HSV-1 helicase–primase (HP) complex (UL5/UL52/UL8) (Human alphaherpesvirus 1 strain 17, UniProt P10189+P10236)
T1 sequence (P10189 1-882): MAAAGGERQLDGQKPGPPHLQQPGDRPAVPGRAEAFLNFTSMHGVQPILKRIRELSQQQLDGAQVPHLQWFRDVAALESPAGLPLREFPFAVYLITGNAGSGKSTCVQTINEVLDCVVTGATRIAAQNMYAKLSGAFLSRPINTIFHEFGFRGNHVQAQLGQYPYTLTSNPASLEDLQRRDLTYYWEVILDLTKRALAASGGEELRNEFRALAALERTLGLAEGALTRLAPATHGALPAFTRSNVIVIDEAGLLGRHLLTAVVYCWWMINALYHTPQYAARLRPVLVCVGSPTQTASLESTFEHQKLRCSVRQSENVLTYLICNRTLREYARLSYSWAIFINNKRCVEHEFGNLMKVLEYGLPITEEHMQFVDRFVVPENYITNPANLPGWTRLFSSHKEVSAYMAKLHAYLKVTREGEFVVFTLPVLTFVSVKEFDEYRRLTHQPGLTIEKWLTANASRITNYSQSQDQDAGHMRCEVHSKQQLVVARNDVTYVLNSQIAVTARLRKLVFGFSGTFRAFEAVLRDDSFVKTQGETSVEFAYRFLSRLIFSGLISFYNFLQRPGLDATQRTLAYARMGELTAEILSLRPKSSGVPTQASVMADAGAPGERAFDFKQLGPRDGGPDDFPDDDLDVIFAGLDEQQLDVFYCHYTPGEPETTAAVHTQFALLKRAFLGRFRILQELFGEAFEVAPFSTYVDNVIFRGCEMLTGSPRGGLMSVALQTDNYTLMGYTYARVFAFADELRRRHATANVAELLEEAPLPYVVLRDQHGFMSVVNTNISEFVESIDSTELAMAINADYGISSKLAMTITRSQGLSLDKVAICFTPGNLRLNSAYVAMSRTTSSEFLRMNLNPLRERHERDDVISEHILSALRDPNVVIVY
T1 sequence (P10236 1-1058): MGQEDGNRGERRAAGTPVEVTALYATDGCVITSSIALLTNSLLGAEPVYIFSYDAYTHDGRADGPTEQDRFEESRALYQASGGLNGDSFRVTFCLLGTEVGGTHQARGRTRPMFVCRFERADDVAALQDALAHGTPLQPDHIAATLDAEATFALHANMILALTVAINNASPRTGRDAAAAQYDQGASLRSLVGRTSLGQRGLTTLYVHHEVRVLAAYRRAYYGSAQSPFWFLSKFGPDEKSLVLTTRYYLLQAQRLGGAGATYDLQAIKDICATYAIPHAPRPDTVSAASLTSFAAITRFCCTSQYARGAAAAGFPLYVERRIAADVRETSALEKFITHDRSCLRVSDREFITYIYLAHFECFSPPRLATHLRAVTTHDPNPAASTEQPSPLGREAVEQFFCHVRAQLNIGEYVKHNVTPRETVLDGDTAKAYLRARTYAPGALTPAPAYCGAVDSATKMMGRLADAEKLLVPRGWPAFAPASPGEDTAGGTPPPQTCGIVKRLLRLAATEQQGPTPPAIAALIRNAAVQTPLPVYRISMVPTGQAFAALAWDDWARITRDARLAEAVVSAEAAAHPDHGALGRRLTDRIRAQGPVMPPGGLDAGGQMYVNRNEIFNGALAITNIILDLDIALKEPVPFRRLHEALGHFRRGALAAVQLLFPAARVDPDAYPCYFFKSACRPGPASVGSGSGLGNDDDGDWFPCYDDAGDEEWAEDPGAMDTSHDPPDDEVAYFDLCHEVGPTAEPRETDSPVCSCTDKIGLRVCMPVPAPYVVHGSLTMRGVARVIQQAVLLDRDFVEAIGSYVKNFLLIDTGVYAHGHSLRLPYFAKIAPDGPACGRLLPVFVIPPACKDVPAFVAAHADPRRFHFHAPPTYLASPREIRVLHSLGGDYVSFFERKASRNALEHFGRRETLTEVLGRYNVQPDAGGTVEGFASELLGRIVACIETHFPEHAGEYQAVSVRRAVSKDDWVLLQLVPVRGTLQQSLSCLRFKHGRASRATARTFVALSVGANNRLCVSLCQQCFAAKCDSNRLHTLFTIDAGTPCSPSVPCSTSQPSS
T1 sequence (P10192 1-750 partner): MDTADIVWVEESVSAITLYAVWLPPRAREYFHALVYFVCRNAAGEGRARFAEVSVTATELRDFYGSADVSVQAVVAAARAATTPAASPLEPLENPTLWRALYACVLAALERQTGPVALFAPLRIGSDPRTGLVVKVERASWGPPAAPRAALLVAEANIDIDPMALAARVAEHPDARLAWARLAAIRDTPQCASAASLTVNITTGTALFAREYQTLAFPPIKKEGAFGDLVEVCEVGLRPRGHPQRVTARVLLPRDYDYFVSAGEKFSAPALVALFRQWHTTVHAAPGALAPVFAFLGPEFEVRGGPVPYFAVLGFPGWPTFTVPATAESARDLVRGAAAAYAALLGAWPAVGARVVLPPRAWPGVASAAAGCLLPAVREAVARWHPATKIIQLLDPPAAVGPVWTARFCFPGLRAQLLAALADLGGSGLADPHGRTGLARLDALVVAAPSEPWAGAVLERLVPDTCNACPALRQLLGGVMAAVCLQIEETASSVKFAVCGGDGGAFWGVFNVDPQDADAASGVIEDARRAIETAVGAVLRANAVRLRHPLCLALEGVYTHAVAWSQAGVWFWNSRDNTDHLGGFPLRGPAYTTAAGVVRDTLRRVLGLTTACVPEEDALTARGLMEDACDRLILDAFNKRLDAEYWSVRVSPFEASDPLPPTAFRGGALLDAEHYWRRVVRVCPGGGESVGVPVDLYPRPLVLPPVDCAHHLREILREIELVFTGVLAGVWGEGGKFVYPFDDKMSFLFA
Test: fluorescent forked-DNA unwinding
Assay type: biochemical

Row | Compound | IC50 [nM]
1 | Cc1nc(N(C)C(=O)Cc2ccc(-c3ccccn3)cc2)sc1S(N)(=O)=O [PTV, pritelivir] | 11.1
2 | Cc1cccc(C)c1N(CC(=O)Nc1ccc(-c2ncon2)cc1)C(=O)C1CCS(=O)(=O)CC1 [AMNV, amenamevir] | 3.5
